Test results reported in patent publication US20220386611A1, “NOVEL HETEROARYL-TRIAZOLE COMPOUNDS AS PESTICIDES” (Bayer Aktiengesellschaft, priority 2019, published 2022).

How the values were obtained:
Assay type in all cases: in vivo
[1] = test system: Rhipicephalus microplus larvae (strain Parkhurst, resistant against synthetic pyrethroids); assay: Rhipicephalus (Boophilus) microplus in-vitro contact test, larval cattle tick; conditions: 5 μg/cm^2 (=500 g/ha), after 48 hours, read-out: efficacy (larvae dead or moribund)
Experimental: Rhipicephalus (Boophilus) Microplus—In-Vitro Contact Tests Larval Cattle Tick (Strain Parkhurst, Resistant Against Synthetic Pyrethroids)
(§1) 9 mg compound is solved in 1 mL acetone and diluted with acetone to the desired concentration. 250 μL of the test solution is filled in 25 mL glass test tubes and homogeneously distributed on the inner walls by rotation and tilting on a shaking device (2 h at 30 rpm). With a compound concentration of 900 ppm, an inner surface of 44.7 cm^2 and a homogeneous distribution, a dose of 5 μg/cm^2 is achieved.
After the solvent has evaporated, each test tube is filled with 20-50 cattle tick larvae (Rhipicephalus microplus), closed with a perforated lid and incubated in a horizontal position at 85% relative humidity and 27° C. in an incubator. After 48 hours efficacy is determined. The larvae are patted on the ground of the tubes and negative geotactic behaviour is recorded.
An efficacy of 100% means all larvae are dead or moribund; 0% means no larvae are dead or moribund.

[2] = test system: adult engorged female ticks (Rhipicephalus microplus); assay: Rhipicephalus (Boophilus) microplus injection test; conditions: 168 h, after 7 days, read-out: efficacy (infertile eggs); for pest or weed control at 0.004 mg: 4 μg/animal
Experimental: Rhipicephalus (Boophilus) microplus—Injection Test
(§2) Solvent: dimethyl sulfoxide
To produce a suitable preparation of active compound, 10 mg of active compound are dissolved in 0.5 mL solvent, and the concentrate is diluted with solvent to the desired concentration.
Five adult engorged female ticks (Rhipicephalus microplus) are injected with 1 μL compound solution into the abdomen. The ticks are transferred into replica plates and incubated in a climate chamber.
After 7 days egg deposition of fertile eggs is monitored. Eggs where fertility is not visible are stored in a climate chamber till hatching after about 42 days. An efficacy of 100% means all eggs are infertile; 0% means all eggs are fertile.

[3] = test system: adult unfed cat fleas (Ctenocephalides felis); assay: Ctenocephalides felis oral test; conditions: 48 h
Experimental: Ctenocephalides felis—Oral Test
as §2
To produce a suitable preparation of active compound, 10 mg of active compound are dissolved in 0.5 ml solvent, and the concentrate is diluted with cattle blood to the desired concentration.
Approximately 20 adult unfed cat fleas (Ctenocephalides felis) are placed in flea chambers. The blood chamber, sealed with parafilm on the bottom, are filled with cattle blood supplied with compound solution and placed on the gauze covered top of the flea chamber, so that the fleas are able to suck the blood. The blood chamber is heated to 37° C. whereas the flea chamber is kept at room temperature.
After 2 days mortality in % is determined. 100% means all the fleas have been killed; 0% means none of the fleas have been killed.

[4] = test system: adult brown dog ticks (Rhipicephalus sanguineus); assay: Rhipicephalus sanguineus in-vitro contact test with adult brown dog ticks; conditions: 5 μg/cm^2 (=500 g/ha), after 48 hours, read-out: efficacy (ticks dead or moribund)
Experimental: Rhipicephalus sanguineus—In-Vitro Contact Tests with Adult Brown Dog Ticks
as §1
After the solvent has evaporated, each test tube is filled with 5-10 adult brown dog ticks (Rhipicephalus sanguineus), closed with a perforated lid and incubated in a lying position at room temperature and relative humidity. After 48 hours efficacy is determined. The ticks are patted on the ground of the tubes and are incubated on a heating plate at 45-50° C. for at most 5 minutes. Immotile or uncoordinated moving ticks, which are not able to escape the heat by climbing upwards, are marked as dead or moribund.
An efficacy of 100% means all ticks are dead or moribund; 0% means no ticks are dead or moribund.

[5] = test system: larvae of the banded cucumber beetle (Diabrotica balteata); assay: Diabrotica balteata spray test; conditions: 168 h, 100 g/ha (=32 μg/well), after 7 days, wheat seeds, read-out: efficacy (seedlings grown like untreated, uninfected control)
Experimental: Diabrotica balteata—spray test
Solvent: 78.0 parts by weight of acetone
1.5 parts by weight of dimethylformamide
(§3) Emulsifier: alkylarylpolyglycol ether
(§4) To produce a suitable preparation of active compound, 1 part by weight of active compound is mixed with the stated amount of solvent, and the concentrate is diluted with water, containing an emulsifier concentration of 1000 ppm, to the desired concentration. Further test concentrations are prepared by dilution with emulsifier containing water.
Soaked wheat seeds (Triticum aestivum) are placed in a multiple well plate filled with agar and some water and are incubated for 1 day to germinate (5 seeds per well). The germinated wheat seeds are sprayed with a test solution containing the desired concentration of the active ingredient. Afterwards each unit is infected with 10-20 larvae of the banded cucumber beetle (Diabrotica balteata).
After 7 days efficacy in % is determined. 100% means all the seedlings have grown up like in the untreated, uninfected control; 0% means none of the seedlings have grown.

[6] = test system: green peach aphid (Myzus persicae); assay: Myzus persicae oral test; conditions: 120 h
Experimental: Solvent: 100 parts by weight acetone
To produce a suitable preparation of active compound, 1 part by weight of active compound is mixed with the stated amount of solvent, and the concentrate is diluted with water to the desired concentration. 50 μL compound solution is filled in microtiter plates and 150 μL IPL41 insect medium (33%+15% sugar) is added to obtain a total volume of 200 μL per well. Afterwards the plates are sealed with parafilm through which a mixed population of the green peach aphid (Myzus persicae) can suck on the compound preparation.
After 5 days mortality in % is determined. 100% means all aphids have been killed and 0% means none of the aphids have been killed.

[7] = test system: fall armyworm larvae (Spodoptera frugiperda); assay: Spodoptera frugiperda spray test; conditions: in Zea mays, 168 h
Experimental: Spodoptera frukiperda—Spray Test
Solvent: 78.0 parts by weight acetone • 1.5 parts by weight dimethylformamide
as §3
To produce a suitable preparation of active compound, 1 part by weight of active compound is mixed with the stated amount of solvents and is diluted with water, containing an emulsifier concentration of 1000 ppm, to the desired concentration. Further test concentrations are prepared by dilution with emulsifier containing water.
Maize (Zea mays) leaf sections are sprayed with a preparation of the active ingredient of the desired concentration. Once dry, the leaf sections are infested with fall armyworm larvae (Spodoptera frugiperda).
After 7 days mortality in % is determined. 100% means all caterpillars have been killed and 0% means none of the caterpillars have been killed.

[8] = test system: Aedes aegypti strain MONHEIM; assay: Aedes aegypti test (AEDSAE surface treatment & contact assay); conditions: 24 hours after contact, read-out: efficacy (mortality); for mortality at 20 mg/m2: surface concentration 20 mg/m^2, 30 minutes exposure
Experimental: Aedes Aegypti Test (AEDSAE Surface Treatment & Contact Assay)
(§5) Solvent: Aceton+2000 ppm rapeseed oil methyl ester (RME)
(§6) In order to produce a sufficient, active ingredient containing solution it is necessary to solve the test compound in the solvent-mix (acetone at 2 mg/ml/RME 2000 ppm). This solution is pipetted onto a glazed tile and after evaporation of the acetone, adult mosquitoes of the species Aedes aegypti strain MONHEIM are placed onto the dried surface. The exposure time is 30 minutes. Mortality in percent (%) is determined 24 hours after contact of the insects to the treated surface. 100% mortality means that all tested insects are dead, whereas 0% means that no insect died.

[9] = test system: Musca domestica strain WHO-N; assay: Musca domestica test (MUSCDO surface treatment & contact assay); conditions: 24 hours after contact, read-out: efficacy (mortality)
Experimental: Musca domestica Test (MUSCDO Surface Treatment & Contact Assay)
as §5
In order to produce a sufficient, active ingredient containing solution it is necessary to solve the test compound in the solvent-mix (acetone at 2 mg/ml/RME 2000 ppm). This solution is pipetted onto a glazed tile and after evaporation of the acetone, adult flies of the species Musca domestica strain WHO-N are placed onto the dried surface. The exposure time is 30 minutes. Mortality in percent (%) is determined 24 hours after contact of the insects to the treated surface. 100% mortality means that all tested insects are dead, whereas 0% means that no insect died.

[10] = test system: Blattella germanica strain PAULINIA; assay: Blattella germanica test (BLTTGE surface treatment & contact assay); conditions: surface concentration 20 mg/m^2, 30 minutes exposure, 24 hours after contact, read-out: efficacy (mortality)
Experimental: Blattella germanica Test (BLTTGE Surface Treatment & Contact Assay)
as §5
In order to produce a sufficient, active ingredient containing solution it is necessary to solve the test compound in the solvent-mix (acetone at 2 mg/ml/RME 2000 ppm). This solution is pipetted onto a glazed tile and after evaporation of the acetone, adult animals of the species Blattella germanica strain PAULINIA are placed onto the dried surface. The exposure time is 30 minutes. Mortality in percent (%) is determined 24 hours after contact of the insects to the treated surface. 100% mortality means that all tested insects are dead, whereas 0% means that no insect died.

[11] = test system: adult cat fleas (Ctenocephalides felis); assay: Ctenocephalides felis in-vitro contact test, adult cat flea; conditions: after 48 hours, read-out: efficacy (fleas dead or moribund); for pest or weed control at 1 µg/cm2, 100 g/ha: 1 μg/cm^2 (=100 g/ha); for pest or weed control at 5 µg/cm2, 500 g/ha: 5 μg/cm^2 (=500 g/ha)
Experimental: Ctenocephalides felis—In-Vitro Contact Tests Adult Cat Flea 9 mg compound is solved in 1 mL acetone and diluted with acetone to the desired concentration. 250 μL of the test solution is filled in 25 mL glass test tubes and homogeneously distributed on the inner walls by rotation and tilting on a shaking device (2 h at 30 rpm). With a compound concentration of 900 ppm, an inner surface of 44.7 cm^2 and a homogeneous distribution, a dose of 5 μg/cm^2 is achieved.
After the solvent has evaporated, each test tube is filled with 5-10 adult cat fleas (Ctenocephalidesfelis), closed with a perforated lid and incubated in a lying position at room temperature and relative humidity.
After 48 hours efficacy is determined. The fleas are patted on the ground of the tubes and are incubated on a heating plate at 45-50° C. for at most 5 minutes. Immotile or uncoordinated moving fleas, which are not able to escape the heat by climbing upwards, are marked as dead or moribund.
An efficacy of 100% means all fleas are dead or moribund; 0% means no fleas are dead or moribund.

[12] = test system: larvae of the southern green stink bug (Nezara viridula); assay: Nezara viridula spray test; conditions: 96 h, after 4 days, barley plants
Experimental: Nezara viridula—Spray Test
Solvent: 78.0 parts by weight of acetone • • 1.5 parts by weight of dimethylformamide
as §3, §4
Barley plants (Hordeum vulgare) infested with larvae of the southern green stink bug (Nezara viridula) are sprayed with a test solution containing the desired concentration of the active ingredient.
After 4 days mortality in % is determined. 100% means all the stink bugs have been killed; 0% means none of the stink bugs have been killed.

[13] = test system: Anopheles funestus strain FUMOZ-R; assay: Anopheles funestus test (ANPHFU surface treatment & contact assay); conditions: surface concentration 20 mg/m^2, 30 minutes exposure, 24 hours after contact, read-out: efficacy (mortality)
Experimental: Anopheles funestus Test (ANPHFU Surface Treatment & Contact Assay)
as §5
as §6, with “Anopheles funestus” for “Aedes aegypti”, “FUMOZ-R (Hunt et al., Med. Vet. Entomol. 2005 September; 19(3): 271-275)” for “MONHEIM”

[14] = surface concentration 4 mg/m^2, 30 minutes exposure

Structure (SMILES)	pest or weed control at 5 µg/cm2 [1]	pest or weed control at 0.004 mg [2]	pest or weed control at 0.02 mg ([2]; 20 μg/animal)	mortality at 100 ppm [3]	pest or weed control at 5 µg/cm2, 500 g/ha [4]	pest or weed control at 32 µg/disc, 100 g/ha [5]	mortality at 4 ppm [6]	mortality at 100 g/ha [7]	mortality at 20 mg/m2 [8]	mortality at 4 mg/m2 [9, 14]	mortality at 20 mg/m2 ([9]; surface concentration 20 mg/m^2, 30 minutes exposure)	mortality at 20 mg/m2 [10]	pest or weed control at 1 µg/cm2, 100 g/ha [11]	pest or weed control at 5 µg/cm2, 500 g/ha [11]	mortality at 100 g/ha [12]	mortality at 4 mg/m2 [8, 14]	mortality at 20 mg/m2 [13]
CC(NC(=O)c1cc(Br)cc(C(F)(F)F)c1)c1nc(Cl)nn1-c1ncccn1 (stereo not drawn) [Example I-003]	100%	100%	100%	100%	100%	100%	100%	100%	80 to 100%	80 to 100%	80 to 100%	80 to 100%					
CC(NC(=O)c1cc(Cl)nc(C(F)(F)F)c1)c1nc(Cl)nn1-c1ncccn1 (stereo not drawn) [Example I-008]	100%	100%		100%	100%	80%							90%	90%	100%	80 to 100%	
CC(NC(=O)c1cc(Cl)cc(C(F)(F)F)c1)c1nc(Br)nn1-c1ncccn1 (stereo not drawn) [Example I-016]	80%	100%		100%		100%	100%	100%	80 to 100%			80 to 100%					80 to 100%
CC(NC(=O)c1cc(Cl)nc(C(F)(F)F)c1)c1nc(I)nn1-c1ncccn1 (stereo not drawn) [Example I-024]	100%				80%	100%							80%	90%	100%		
